Data reported in ChEMBL document CHEMBL3751795, “Discovery of pyridyl-based inhibitors of Plasmodium falciparum N-myristoyltransferase” (Medchemcomm, 2015).

Experiments:
[1] = molecular target: T1, Glycylpeptide N-tetradecanoyltransferase (Plasmodium falciparum (isolate 3D7), UniProt Q8ILW6); conditions: read-out: Ki(app)
T1 sequence (Q8ILW6 whole entry): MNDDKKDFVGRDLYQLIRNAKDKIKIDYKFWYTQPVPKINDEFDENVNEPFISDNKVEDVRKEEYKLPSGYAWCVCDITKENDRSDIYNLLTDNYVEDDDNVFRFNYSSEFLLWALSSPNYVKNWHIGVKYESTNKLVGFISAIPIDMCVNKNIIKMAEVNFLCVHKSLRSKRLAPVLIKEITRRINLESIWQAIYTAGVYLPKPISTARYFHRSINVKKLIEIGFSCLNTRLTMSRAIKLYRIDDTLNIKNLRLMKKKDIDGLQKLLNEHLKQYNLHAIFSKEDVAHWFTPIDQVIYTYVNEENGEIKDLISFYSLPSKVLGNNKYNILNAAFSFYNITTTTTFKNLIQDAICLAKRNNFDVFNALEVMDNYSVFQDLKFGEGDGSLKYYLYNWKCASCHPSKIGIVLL

[2] = molecular target: T2, Glycylpeptide N-tetradecanoyltransferase 1 (Homo sapiens, UniProt P30419)
T2 sequence (P30419 whole entry): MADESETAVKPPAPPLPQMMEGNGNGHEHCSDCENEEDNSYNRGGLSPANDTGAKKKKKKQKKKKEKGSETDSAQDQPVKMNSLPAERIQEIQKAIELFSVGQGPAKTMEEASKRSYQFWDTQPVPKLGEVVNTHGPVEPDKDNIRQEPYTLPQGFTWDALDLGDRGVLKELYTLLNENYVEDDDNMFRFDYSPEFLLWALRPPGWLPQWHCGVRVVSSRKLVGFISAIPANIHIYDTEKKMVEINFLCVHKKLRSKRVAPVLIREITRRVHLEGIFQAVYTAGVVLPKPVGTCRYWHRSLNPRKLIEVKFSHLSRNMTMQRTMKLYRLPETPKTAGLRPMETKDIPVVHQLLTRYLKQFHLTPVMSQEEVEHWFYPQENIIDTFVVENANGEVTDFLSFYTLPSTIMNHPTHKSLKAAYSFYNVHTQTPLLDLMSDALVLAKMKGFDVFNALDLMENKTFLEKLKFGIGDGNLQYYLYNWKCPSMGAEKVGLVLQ
Description: Inhibition of human NMT1 by 7-diethylamine-3-(4'maleimidylphenyl)-4-methylcoumarin based fluorescence assay

[3] = Cytotoxicity against human HepG2 cells after 48 hrs by MTS assay; format: cell-based; conditions: read-out: LD50
[4] = test system: Plasmodium falciparum; test: Antiparasitic activity against Plasmodium falciparum 3D7 trophozoites infected in RBC assessed as reduction in cell viability incubated for 96 hrs SyBr green assay; conditions: 3D7, 96 h

Structure (SMILES) | Ki [1] [nM] | Ki [2] [nM] | CC50 at 48 h [3] [nM] | EC50 [4] [nM]
Cc1cccc(-c2nc(Cc3ccccc3)no2)c1OC1CCNCC1 | 39000 |  |  | 
Fc1cccc(-c2nc(Cc3ccccc3)no2)c1OC1CCNCC1 | 1500 |  |  | 
c1ccc(Cc2noc(-c3cccnc3OC3CCNCC3)n2)cc1 | 140 | 1700 |  | 
Cc1nn(C)c(C)c1Cc1noc(-c2cccnc2OC2CCN(C(C)C)CC2)n1 | 90 |  | > 100000 | 
c1ccc(Cc2noc(-c3ccccc3OC3CCNCC3)n2)cc1 | 1400 |  |  | 
Fc1ccc(OC2CCNCC2)c(-c2nc(Cc3ccccc3)no2)c1 | 240 | 1000 |  | 
Cc1nn(C)c(C)c1Cc1noc(-c2cccnc2OC2CCN(C)CC2)n1 | 570 |  |  | > 30000
Fc1ccc(-c2nc(Cc3ccccc3)no2)c(OC2CCNCC2)c1 | 220 | 4900 |  | 
Cc1nn(C)c(C)c1Cc1noc(-c2cccnc2OC2CCNCC2)n1 | 28 |  | > 100000 | 
Cc1ccc(-c2nc(Cc3ccccc3)no2)c(OC2CCNCC2)c1 | 620 |  |  | 
COc1cccc(Cc2noc(-c3ccc(F)cc3OC3CCNCC3)n2)c1 | 71 |  |  | 
Fc1cccc(OC2CCNCC2)c1-c1nc(Cc2ccccc2)no1 | 4800 |  |  | 
COc1cccc(Cc2noc(-c3ccccc3OC3CCNCC3)n2)c1 | 190 | 1400 |  | 
COc1cccc(-c2nc(Cc3ccccc3)no2)c1OC1CCNCC1 | 17000 |  |  | 
CCN1CCC(Oc2ncccc2-c2nc(Cc3c(C)nn(C)c3C)no2)CC1 | 340 |  |  | > 10000
COc1ccc(-c2nc(Cc3ccccc3)no2)c(OC2CCNCC2)c1 | 180 | 1200 |  | 
Clc1ccc(-c2nc(Cc3ccccc3)no2)c(OC2CCNCC2)c1 | 290 |  |  | 
Cc1ccc(OC2CCNCC2)c(-c2nc(Cc3ccccc3)no2)c1 | 29000 |  |  | 
COc1cccc(Cc2noc(-c3ccc(OC)cc3OC3CCNCC3)n2)c1 | 71 |  |  | 
COc1cccc(Cc2noc(-c3cccnc3OC3CCNCC3)n2)c1 | 27 |  |  | 
c1cnc(OC2CCNCC2)c(-c2nc(Cc3cccc4ncccc34)no2)c1 | 1.7 | 24 | 65000 | 210
COc1ccc(OC2CCNCC2)c(-c2nc(Cc3ccccc3)no2)c1 | 4600 | 2300 |  | 
Clc1ccc(OC2CCNCC2)c(-c2nc(Cc3ccccc3)no2)c1 | 520 |  |  | 
COc1cccc(Cc2noc(-c3ccc(Cl)cc3OC3CCNCC3)n2)c1 | 30 |  |  | 
c1ccc(Cc2noc(-c3ncccc3OC3CCNCC3)n2)cc1 | 29000 |  |  | 
